Our source for the activation values is US20260193180A1, “AUTOPHAGY INDUCING COMPOUNDS AND USES THEREOF” (SAMSARA THERAPEUTICS INC., priority 2022, published 2026).

For this assay, the system named is Human osteosarcoma U2OS cells. Nature of the assay: Acidic vesicle formation (lysosome/autolysosome staining, LysoView 633 / LysoTracker Deep Red), stimulation of autophagy. The format is cell-based. The following applies: 24 hours; for activation at 10 µM: read-out: increase in acidic vesicle formation over the DMSO-treated control; for activation at 0.8 µM: read-out: Activity (percentage increase in acidic vesicle formation over the DMSO-treated control). The procedure: Lysosomes play a fundamental role in the autophagic pathway by fusing with autophagosomes and creating ‘autolysosomes’ in order to digest their contents. Stimulation of lysosome and autolysosome formation by a compound is indicative of a stimulation of autophagy. The ability of compounds to stimulate lysosome and autolysosome formation, and thus autophagy, in live cells was assessed via fluorescent microscopy using various fluorescent stains for labelling and tracking acidic organelles (including lysosomes and autolysosomes) such as: LysoView™ 650 (70059 and 70059-T, Biotium), LysoView™633 (70058 and 70058-T, Biotium) and LysoTracker™ Deep Red (L12492, ThermoFisher Scientific). The cellular phenotype was quantitatively assessed for the induction of acidic vesicle formation and compared to a non-treated control, thus providing a measure of the ability of the compound under investigation to stimulate autophagy.
Representative procedure using LysoView™633 dye or LysoTracker™ Deep Red dye: Human osteosarcoma U2OS cells (40,000 cells/well) were seeded in a 24 well glass bottom plate (Sensoplate, Greiner Bio-One) and were incubated overnight in a humidified atmosphere at 37° C. and 5% CO2. Cells were grown in DMEM (Gibco) supplemented with 10% Fetal Bovine Serum (FBS) and 100 units/ml penicillin and 100 μg/ml streptomycin (Invitrogen). After the attachment period, cells were treated with different compounds of interest (at various concentrations in DMSO) or DMSO (non-treated control) in cell culture medium and were incubated for 24 hours. Compound-containing medium was removed and cells were incubated with pre-warmed cell culture medium containing 1× LysoView™ 633 (70058 and 70058-T, Biotium) or 50 nM LysoTracker™ Deep Red (L12492, ThermoFisher Scientific) for 45 minutes at 37° C. Finally, cell nuclei were stained for 10 minutes using Hoechst 33342 (1 μg/mL) and then the medium was replaced with fresh medium. The 24 well plate was then fitted into a heated stage on the microscope and cells maintained at 37° C. Images were captured using appropriate filter set for Cy5 and DAPI detection with the EVOS M7000 Microscope (ThermoFisher Scientific). The cellular phenotype was visually assessed for the induction of acidic vesicle formation relative to the non-treated control; multiple images were acquired and analysed using ImageJ or Cell Profiler.

Counter-ions that a name gives are not always drawn. A value given as a limit tells only on which side of the number the result lay.

`CCOc1ccc(C(F)(F)F)cc1CN1CCN[C@@H](C)C1` [Compound 1, (S)-1-(2-ethoxy-5-(trifluoromethyl)benzyl)-3-methylpiperazine hydrochloride]: the activation at 10 µM is at least 25%.
Regarding `CCOc1ccc(C(F)(F)F)cc1CN1CC[C@@H](CN)C1` [Compound 2, (S)-(1-(2-ethoxy-5-(trifluoromethyl)benzyl)pyrrolidin-3-yl)methanamine hydrochloride], the activation at 0.8 µM fell in the range of 10 to 30% and the activation at 10 µM was at least 25%.
In the case of `CCCOc1ccc(Cl)cc1CN1CC[C@@H](CN)C1` [Compound 3, (S)-(1-(5-chloro-2-propoxybenzyl)pyrrolidin-3-yl)methanamine hydrochloride], the activation at 0.8 µM is 30 to 50% and the activation at 10 µM was at least 25%.
On to `NC[C@@H]1CCN(Cc2cc(Cl)ccc2OCC2CC2)C1` [Compound 4, (S)-(1-(5-chloro-2-(cyclopropylmethoxy)benzyl)pyrrolidin-3-yl)methanamine hydrochloride], for which the activation at 0.8 µM was 30 to 50% and the activation at 10 µM was at least 25%.
Take `CCOc1cc(Cl)c(Cl)cc1CN1CC[C@@H](CN)C1` [Compound 5, (S)-(1-(4,5-dichloro-2-ethoxybenzyl)pyrrolidin-3-yl)methanamine hydrochloride]: the activation at 0.8 µM was 30 to 50% and the activation at 10 µM is at least 25%.
On to `NC[C@@H]1CCN(Cc2cc(Cl)c(Cl)cc2OCC2CC2)C1` [Compound 6, (S)-(1-(4,5-dichloro-2-(cyclopropylmethoxy)benzyl)pyrrolidin-3-yl)methanamine hydrochloride], for which the activation at 0.8 µM lay in the range of 50 to 100% and the activation at 10 µM is at least 25%.
Take `CCOc1ccc(Cl)cc1CN1CCC[C@@H](CN)C1` [Compound 7, (S)-(1-(5-chloro-2-ethoxybenzyl)piperidin-3-yl)methanamine hydrochloride]: the activation at 0.8 µM was in the range of 30 to 50% and the activation at 10 µM was at least 25%.
As for `NC[C@@H]1CCCN(Cc2cc(Cl)ccc2OCC2CC2)C1` [Compound 8, (S)-(1-(5-chloro-2-(cyclopropylmethoxy)benzyl)piperidin-3-yl)methanamine hydrochloride], the activation at 0.8 µM lay within 10 to 30% and the activation at 10 µM is at least 25%.
In the case of `CCOc1ccc(Cl)cc1CN1CCN(CC)CC1` [Compound 10, 1-(5-chloro-2-ethoxybenzyl)-4-ethylpiperazine], the activation at 0.8 µM is 10 to 30% and the activation at 10 µM was at least 25%.
For `CCOc1ccc(Cl)cc1CN1CCC(N(C)C)CC1` [Compound 11, 1-(5-chloro-2-ethoxybenzyl)-N,N-dimethylpiperidin-4-amine], the activation at 0.8 µM was in the range of 10 to 30% and the activation at 10 µM was at least 25%.
Consider `CCOc1ccc(Cl)cc1CN1CCC[C@H]1CN` [Compound 13, (S)-(1-(5-chloro-2-ethoxybenzyl)pyrrolidin-2-yl)methanamine hydrochloride], for which the activation at 10 µM is at least 25%.
On to `CCOc1ccc(Cl)cc1CN1CCC[C@@H]1CN` [Compound 14, (R)-(1-(5-chloro-2-ethoxybenzyl)pyrrolidin-2-yl)methanamine hydrochloride], for which the activation at 10 µM is at least 25%.
Consider `CCOc1ccc(Cl)cc1CN1CCC[C@@H](N)C1` [Compound 15, (R)-1-(5-chloro-2-ethoxybenzyl)piperidin-3-amine hydrochloride], for which the activation at 0.8 µM lay within 10 to 30% and the activation at 10 µM was at least 25%.
Turning to `CCOc1ccc(Cl)cc1CN1CCC[C@H](N)C1` [Compound 16, (S)-1-(5-chloro-2-ethoxybenzyl)piperidin-3-amine hydrochloride], the activation at 10 µM is at least 25%.
With `CCOc1ccc(Cl)cc1CN1CC(CN)C1` [Compound 17, (1-(5-chloro-2-ethoxybenzyl)azetidin-3-yl)methanamine hydrochloride], the activation at 0.8 µM was in the range of 50 to 100% and the activation at 10 µM was at least 25%.
For the compound `CCOc1ccc(Cl)cc1CN1CCN(C(C)C)CC1` [Compound 18, 1-(5-chloro-2-ethoxybenzyl)-4-isopropylpiperazine], the activation at 0.8 µM lay in the range of 10 to 30% and the activation at 10 µM was at least 25%.
With `CCOc1ccc(Cl)cc1CCN1CCC[C@H](N)C1` [Compound 19, (S)-1-(5-chloro-2-ethoxyphenethyl)piperidin-3-amine hydrochloride], the activation at 10 µM is at least 25%.
For the compound `NC[C@@H]1CCN(CCc2ccc(OCC3CC3)c(Cl)c2)C1` [Compound 20, (S)-(1-(3-chloro-4-(cyclopropylmethoxy)phenethyl)pyrrolidin-3-yl)methanamine hydrochloride], the activation at 10 µM was at least 25%.
The same measure, in the same setting: the value for `CCOc1cc(F)c(F)cc1CN1CC[C@H](CN)C1` [Compound 21, (R)-(1-(2-ethoxy-4,5-difluorobenzyl)pyrrolidin-3-yl)methanamine hydrochloride] was at least 25%; that for `CCOc1cc(F)c(F)cc1CN1CC[C@@H](CN)C1` [Compound 22, (S)-(1-(2-ethoxy-4,5-difluorobenzyl)pyrrolidin-3-yl)methanamine hydrochloride] was at least 25%; that for `NC[C@H]1CCN(Cc2cc(Cl)ccc2OCCO)C1` [Compound 24, (R)-2-(2-((3-(aminomethyl)pyrrolidin-1-yl)methyl)-4-chlorophenoxy)ethan-1-ol hydrochloride] was at least 25%.
Regarding `NC[C@@H]1CCN(Cc2cc(Cl)ccc2OCCO)C1` [Compound 25, (S)-2-(2-((3-(aminomethyl)pyrrolidin-1-yl)methyl)-4-chlorophenoxy)ethan-1-ol hydrochloride], the activation at 0.8 µM lay in the range of 30 to 50% and the activation at 10 µM is at least 25%.
As for `CCCCOc1ccc(Cl)cc1CN1CC[C@H](CN)C1` [Compound 26, (R)-(1-(2-butoxy-5-chlorobenzyl)pyrrolidin-3-yl)methanamine hydrochloride], the activation at 0.8 µM was above 100% and the activation at 10 µM is at least 25%.
Regarding `CCCCOc1ccc(Cl)cc1CN1CC[C@@H](CN)C1` [Compound 27, (S)-(1-(2-butoxy-5-chlorobenzyl)pyrrolidin-3-yl)methanamine hydrochloride], the activation at 0.8 µM was above 100% and the activation at 10 µM is at least 25%.
Turning to `CCOc1ccc(Cl)cc1CN1CCO[C@@H](CN)C1` [Compound 28, (S)-(4-(5-chloro-2-ethoxybenzyl)morpholin-2-yl)methanamine hydrochloride], the activation at 0.8 µM is 10 to 30% and the activation at 10 µM was at least 25%.
With `CCOc1ccc(Cl)cc1CN1CCO[C@H](CN)C1` [Compound 29, (R)-(4-(5-chloro-2-ethoxybenzyl)morpholin-2-yl)methanamine hydrochloride], the activation at 0.8 µM was in the range of 50 to 100% and the activation at 10 µM is at least 25%.
Turning to `CCOc1cc(Cl)cc(CN2CC[C@@H](CN)C2)c1` [Compound 31, (S)-(1-(3-chloro-5-ethoxybenzyl)pyrrolidin-3-yl)methanamine hydrochloride], the activation at 0.8 µM is above 100% and the activation at 10 µM was at least 25%.
The like results for `CCCOc1ccc(OC(F)(F)F)cc1CN1CCN[C@@H](C)C1` [Compound 32, (S)-3-methyl-1-(2-propoxy-5-(trifluoromethoxy)benzyl) piperazine hydrochloride] were, in that order, 50 to 100% and at least 25%.
`NC[C@@H]1CCN(CCc2cc(Cl)cc3c2OCO3)C1` [Compound 33, (S)-(1-(2-(6-chlorobenzo[d][1,3]dioxol-4-yl)ethyl)pyrrolidin-3-yl)methanamine hydrochloride]: the activation at 10 µM was at least 25%.
Same read-out and setting: the value for `CCOc1ccc(Cl)c(Cl)c1CCN1CC[C@@H](CN)C1` [Compound 34, (S)-(1-(2,3-dichloro-6-ethoxyphenethyl)pyrrolidin-3-yl)methanamine hydrochloride] was at least 25%; that for `CCOc1cc(Cl)c(Cl)cc1CCN1CC[C@@H](CN)C1` [Compound 35, (S)-(1-(4,5-dichloro-2-ethoxyphenethyl)pyrrolidin-3-yl)methanamine hydrochloride] was at least 25%.
As for `CCOc1ccc(C(F)(F)F)cc1CN1CCN[C@H](C)C1` [Compound 36, (R)-1-(2-ethoxy-5-(trifluoromethyl)benzyl)-3-methylpiperazine hydrochloride], the activation at 0.8 µM is 10 to 30% and the activation at 10 µM is at least 25%.
In the case of `CCOc1cc(Cl)c(Cl)cc1CN1CCN[C@@H](C)C1` [Compound 37, (S)-1-(4,5-dichloro-2-ethoxybenzyl)-3-methylpiperazine hydrochloride], the activation at 0.8 µM lay within 10 to 30% and the activation at 10 µM was at least 25%.
